Data: patent US20170022171A1, “2,5-DISUBSTITUTED CYCLOPENTANECARBOXYLIC ACIDS AND THEIR USE” (Bayer Pharma Aktiengesellschaft, priority 2014, published 2017)

Target: T1, human macrophage elastase (HME/hMMP-12) (Homo sapiens, UniProt P39900)
T1 construct: 0.5 nM HME; purchased R&D Systems 917-MP
Test: In vitro HME inhibition test (standard or high-sensitivity)
Type: biochemical
Conditions: in some cases mean values
Procedure: The potency of the compounds according to the invention with respect to HME (MMP-12) is determined in an in vitro inhibition test. The HME-mediated amidolytic cleavage of a suitable peptide substrate leads to an increase in fluorescent light therein. The signal intensity of the fluorescent light is directly proportional to the enzyme activity. The active concentration of a test compound at which half the enzyme is inhibited (50% signal intensity of the fluorescent light) is reported as the IC50 value.
In a 384 hole microtiter plate, in a total test volume of 41 the test buffer (0.1 M HEPES pH 7.4, 0.15 M NaCl, 0.03 M CaCl2, 0.004 mM ZnCl2, 0.02 M EDTA, 0.005% Brij®), the enzyme (0.5 nM HME; from R&D Systems, 917-MP, autocatalytic activation according to the manufacturer's instructions) and the intramolecularly quenched substrate [5 μM Mca-Pro-Leu-Gly-Leu-Glu-Glu-Ala-Dap(Dnp)-NH2; Bachem, M-2670] are incubated in the absence and presence of the test substance (as a solution in DMSO) at 37° C. for two hours. The fluorescence intensity of the test mixtures is measured (excitation […], emission 393 nm). The IC50 values are ascertained by plotting the fluorescent light intensity against the active ingredient concentration.
In this case, an enzyme concentration ten times lower is used (final concentration, for example, 0.05 nM) in order to achieve an elevated test sensitivity. The incubation period chosen for the test is correspondingly longer (for example 16 hours).

T1 sequence (P39900 106-470): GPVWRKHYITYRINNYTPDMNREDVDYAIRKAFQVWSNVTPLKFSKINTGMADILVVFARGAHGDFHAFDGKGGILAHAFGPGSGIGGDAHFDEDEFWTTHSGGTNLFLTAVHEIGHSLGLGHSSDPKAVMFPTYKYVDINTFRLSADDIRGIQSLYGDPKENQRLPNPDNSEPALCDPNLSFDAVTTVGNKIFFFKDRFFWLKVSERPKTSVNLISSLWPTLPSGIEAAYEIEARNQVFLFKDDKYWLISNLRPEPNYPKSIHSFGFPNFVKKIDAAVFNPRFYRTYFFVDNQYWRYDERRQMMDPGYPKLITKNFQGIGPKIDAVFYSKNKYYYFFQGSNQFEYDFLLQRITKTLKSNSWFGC

Row | Compound | IC50
1 | CCCCCCOc1ccc(C(=O)[C@H]2CC[C@@H](Cn3nnc4ccccc4c3=O)[C@@H]2C(=O)O)cc1 (racemic) [Example 6, (+/−)-(1RS,2RS,5SR)-2-[4-(Hexyloxy)benzoyl]-5-[(4-oxo-1,2,3-benzotriazin-3(4H)-yl)methyl]cyclopentanecarboxylic acid] | 170 pM
2 | CCCCCOc1ccc(C(=O)[C@H]2CC[C@@H](Cn3nnc4ccccc4c3=O)[C@@H]2C(=O)O)cc1 (racemic) [Example 7, (+/−)-(1RS,2SR,5RS)-2-[(4-Oxo-1,2,3-benzotriazin-3(4H)-yl)methyl]-5-[4-(pentyloxy)benzoyl]cyclopentanecarboxylic acid] | 260 pM
3 | CCCCOc1ccc(C(=O)[C@H]2CC[C@@H](Cn3nnc4ccccc4c3=O)[C@@H]2C(=O)O)cc1 (racemic) [Example 10, (+/−)-(1RS,2RS,5SR)-2-(4-Butoxybenzoyl)-5-[(4-oxo-1,2,3-benzotriazin-3 (4H)-yl)methyl]cyclopentanecarboxylic acid] | 360 pM
4 | O=C(O)[C@H]1[C@H](Cn2nnc3ccc(C(F)(F)F)cc3c2=O)CC[C@@H]1C(=O)c1ccc(OCc2cccc(Cl)c2)cc1 (racemic) [Example 21, (+/−)-(1RS,2RS,5SR)-2-{4-[(3-Chlorobenzyl)oxy]benzoyl}-5-{[4-oxo-6-(trifluoromethyl)-1,2,3-benzotriazin-3(4H)-yl]methyl}cyclopentanecarboxylic acid] | 45 pM
5 | O=C(O)[C@H]1[C@H](Cn2nnc3ccc(C(F)(F)F)cc3c2=O)CC[C@@H]1C(=O)c1ccc(OCc2ccc(Cl)cc2)cc1 (racemic) [Example 24, (+/−)-(1RS,2RS,5SR)-2-{4-[(4-Chlorobenzyl)oxy]benzoyl}-5-{[4-oxo-6-(trifluoromethyl)-1,2,3-benzotriazin-3(4H)-yl]methyl}cyclopentanecarboxylic acid] | 15 pM
6 | O=C(O)[C@H]1[C@H](Cn2nnc3ccc(C(F)(F)F)cc3c2=O)CC[C@@H]1C(=O)c1ccc(OCc2ccc(Cl)c(Cl)c2)cc1 (racemic) [Example 27, (+/−)-(1RS,2RS,5SR)-2-{4-[(3,4-Dichlorobenzyl)oxy]benzoyl}-5-{[4-oxo-6-(trifluoromethyl)-1,2,3-benzotriazin-3(4H)-yl]methyl}cyclopentanecarboxylic acid] | 32 pM
7 | O=C(O)[C@H]1[C@H](Cn2nnc3ccc(C(F)(F)F)cc3c2=O)CC[C@@H]1C(=O)c1ccc(OCc2cccc(N3CCOC3=O)c2)cc1 (racemic) [Example 33, (+/−)-(1RS,2RS,5SR)-2-(4-{[3-(2-Oxo-1,3-oxazolidin-3-yl)benzyl]oxy}benzoyl)-5-{[4-oxo-6-(trifluoromethyl)-1,2,3-benzotriazin-3 (4H)-yl]methyl}cyclopentanecarboxylic acid] | 130 pM
8 | O=C(O)[C@H]1[C@H](Cn2nnc3ccc(C(F)(F)F)cc3c2=O)CC[C@@H]1C(=O)c1ccc(OCCc2ccccc2)cc1 (racemic) [Example 36, (+/−)-(1RS,2SR,5RS)-2-{[4-Oxo-6-(trifluoromethyl)-1,2,3-benzotriazin-3(4H)-yl]methyl}-5-[4-(2-phenylethoxy)benzoyl]cyclopentanecarboxylic acid] | 130 pM
9 | O=C(O)[C@H]1[C@H](Cn2nnc3ccc(C(F)(F)F)cc3c2=O)CC[C@@H]1C(=O)c1ccc(OCC2CCCC2)cc1 (racemic) [Example 43, (+/−)-(1RS,2RS,5SR)-2-[4-(Cyclopentylmethoxy)benzoyl]-5-{[4-oxo-6-(trifluoromethyl)-1,2,3-benzotriazin-3(4H)-yl]methyl}cyclopentanecarboxylic acid] | 39 pM
10 | O=C(O)[C@H]1[C@H](Cn2nnc3ccc(C(F)(F)F)cc3c2=O)CC[C@@H]1C(=O)c1ccc(OCC2CCC2)cc1 (racemic) [Example 46, (+/−)-(1RS,2RS,5SR)-2-[4-(Cyclobutylmethoxy)benzoyl]-5-{[4-oxo-6-(trifluoromethyl)-1,2,3-benzotriazin-3(4H)-yl]methyl}cyclopentanecarboxylic acid] | 34 pM
11 | O=C(O)[C@H]1[C@H](Cn2nnc3ccc(C(F)(F)F)cc3c2=O)CC[C@@H]1C(=O)c1ccc(OCC2CC2)cc1 (racemic) [Example 49, (+/−)-(1RS,2RS,5SR)-2-[4-(Cyclopropylmethoxy)benzoyl]-5-{[4-oxo-6-(trifluoromethyl)-1,2,3-benzotriazin-3(4H)-yl]methyl}cyclopentanecarboxylic acid] | 140 pM
12 | O=C(O)[C@H]1[C@H](Cn2nnc3ccc(C(F)(F)F)cc3c2=O)CC[C@@H]1C(=O)c1ccc(OCCC2CCCCC2)cc1 (racemic) [Example 50, (+/−)-(1RS,2RS,5SR)-2-[4-(2-Cyclohexylethoxy)benzoyl]-5-{[4-oxo-6-(trifluoromethyl)-1,2,3-benzotriazin-3(4H)-yl]methyl}cyclopentanecarboxylic acid] | 36 pM
13 | O=C(O)[C@H]1[C@H](Cn2nnc3ccc(C(F)(F)F)cc3c2=O)CC[C@@H]1C(=O)c1ccc(OCCC2CCCC2)cc1 (racemic) [Example 53, (+/−)-(1RS,2RS,5SR)-2-[4-(2-Cyclopentylethoxy)benzoyl]-5-{[4-oxo-6-(trifluoromethyl)-1,2,3-benzotriazin-3(4H)-yl]methyl}cyclopentanecarboxylic acid] | 27 pM
14 | CCCCCCOc1ccc(C(=O)[C@H]2CC[C@@H](Cn3nnc4ccc(C(F)(F)F)cc4c3=O)[C@@H]2C(=O)O)cc1 (racemic) [Example 57, (+/−)-(1RS,2RS,5SR)-2-[4-(Hexyloxy)benzoyl]-5-{[4-oxo-6-(trifluoromethyl)-1,2,3-benzotriazin-3(4H)-yl]methyl}cyclopentanecarboxylic acid] | 28 pM
15 | CCCCCOc1ccc(C(=O)[C@H]2CC[C@@H](Cn3nnc4ccc(C(F)(F)F)cc4c3=O)[C@@H]2C(=O)O)cc1 (racemic) [Example 63, (+/−)-(1RS,2SR,5RS)-2-{[4-Oxo-6-(trifluoromethyl)-1,2,3-benzotriazin-3(4H)-yl]methyl}-5-[4-(pentyloxy)benzoyl]cyclopentanecarboxylic acid] | 15 pM
16 | CCCCOc1ccc(C(=O)[C@H]2CC[C@@H](Cn3nnc4ccc(C(F)(F)F)cc4c3=O)[C@@H]2C(=O)O)cc1 (racemic) [Example 66, (+/−)-(1RS,2RS,5SR)-2-(4-Butoxybenzoyl)-5-{[4-oxo-6-(trifluoromethyl)-1,2,3-benzotriazin-3 (4H)-yl]methyl}cyclopentanecarboxylic acid] | 43 pM
17 | CCCOc1ccc(C(=O)[C@H]2CC[C@@H](Cn3nnc4ccc(C(F)(F)F)cc4c3=O)[C@@H]2C(=O)O)cc1 (racemic) [Example 69, (+/−)-(1RS,2SR,5RS)-2-{[4-Oxo-6-(trifluoromethyl)-1,2,3-benzotriazin-3(4H)-yl]methyl}-5-(4-propoxybenzoyl)cyclopentanecarboxylic acid] | 94 pM
18 | CC(C)COc1ccc(C(=O)[C@H]2CC[C@@H](Cn3nnc4ccc(C(F)(F)F)cc4c3=O)[C@@H]2C(=O)O)cc1 (racemic) [Example 72, (+/−)-(1RS,2RS,5SR)-2-(4-Isobutoxybenzoyl)-5-{[4-oxo-6-(trifluoromethyl)-1,2,3-benzotriazin-3(4H)-yl]methyl}cyclopentanecarboxylic acid] | 130 pM
19 | O=C(O)[C@H]1[C@H](Cn2nnc3ccc(C(F)(F)F)cc3c2=O)CC[C@@H]1C(=O)c1ccc(SCc2ccccc2)cc1 (racemic) [Example 73, (+/−)-(1RS,2RS,5SR)-2-[4-(Benzylsulphanyl)benzoyl]-5-{[4-oxo-6-(trifluoromethyl)-1,2,3-benzotriazin-3(4H)-yl]methyl}cyclopentanecarboxylic acid] | 170 pM
20 | O=C(O)[C@H]1[C@H](Cn2nnc3ccc(C(F)(F)F)cc3c2=O)CC[C@@H]1C(=O)c1ccc(SCc2cccc(Cl)c2)cc1 (racemic) [Example 76, (+/−)-(1RS,2RS,5SR)-2-{4-[(3-Chlorobenzyl)sulphanyl]benzoyl}-5-{[4-oxo-6-(trifluoromethyl)-1,2,3-benzotriazin-3(4H)-yl]methyl}cyclopentanecarboxylic acid] | 100 pM
21 | O=C(O)[C@H]1[C@H](Cn2nnc3ccc(C(F)(F)F)cc3c2=O)CC[C@@H]1C(=O)c1ccc(SCCc2ccccc2)cc1 (racemic) [Example 82, (+/−)-(1RS,2SR,5RS)-2-{[4-Oxo-6-(trifluoromethyl)-1,2,3-benzotriazin-3(4H)-yl]methyl}-5-{4-[(2-phenylethyl)sulphanyl]benzoyl}cyclopentanecarboxylic acid] | 120 pM
22 | O=C(O)[C@H]1[C@H](Cn2nnc3ccc(C(F)(F)F)cc3c2=O)CC[C@@H]1C(=O)c1ccc(SCC2CCCCC2)cc1 (racemic) [Example 85] | 220 pM
23 | Cc1ccc2nnn(C[C@@H]3CC[C@H](C(=O)c4ccc(OCc5ccc(F)cc5)cc4)[C@H]3C(=O)O)c(=O)c2c1 (racemic) [Example 94, (+/−)-(1RS,2RS,5SR)-2-{4-[(4-Fluorobenzyl)oxy]benzoyl}-5-[(6-methyl-4-oxo-1,2,3-benzotriazin-3(4H)-yl)methyl]cyclopentanecarboxylic acid] | 55 pM
24 | Cc1ccc2nnn(C[C@@H]3CC[C@H](C(=O)c4ccc(OCCc5ccccc5)cc4)[C@H]3C(=O)O)c(=O)c2c1 (racemic) [Example 112, (+/−)-(1RS,2SR,5RS)-2-[(6-Methyl-4-oxo-1,2,3-benzotriazin-3(4H)-yl)methyl]-5-[4-(2-phenylethoxy)benzoyl]cyclopentanecarboxylic acid] | 660 pM
